{"source": "PubChem BioAssay AID588780", "about": "(Sanford-Burnham Center for Chemical Genomics, 2011)", "note": "Activity calls are given as the source filed them.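 The calls were made as follows: active = compounds whose fitted half-maximal concentration in the cell-protection dose series is at or below a set limit; inactive = the rest.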"}
{"system": "H9c2 cardiomyocytes, 2-deoxyglucose stress, ATP luminescence, 2 h", "assay": "H9c2 cell survival under 2-deoxyglucose stress – uHTS hits, dose response (AID 588780)"}
{"smiles": "CCOc1ccc2[nH]c(=O)c(CN(Cc3ccco3)C(CC)c3nnnn3Cc3ccccc3)cc2c1", "note": "(configuration not stated)", "IC50": "> 79 µM (inactive)"}
{"smiles": "COc1cccc(OC)c1C(=O)Nc1cc(C)nn1-c1nc2ccccc2[nH]1", "IC50": "> 79 µM (inactive)"}
{"smiles": "COc1cc(-c2cc3nc(NCCOc4ccccc4)ccn3n2)cc(OC)c1OC", "IC50": "13.9 µM"}
{"smiles": "CC(=O)c1cccc(NC(=O)Nc2ccc3c(c2)N(C)C(=O)CS3)c1", "IC50": "> 79 µM (inactive)"}
{"smiles": "Cc1ccc(-c2n[nH]c(=O)c3ccccc23)cc1N", "IC50": "17.5 µM"}
{"smiles": "CN(C)CCNc1ccc(-c2n[nH]c(=O)c3ccccc23)cc1[N+](=O)[O-]", "IC50": "> 79 µM (inactive)"}
{"smiles": "COc1ccc(N(CC(=O)N/N=C/c2cccs2)S(=O)(=O)c2ccc(OC)c(OC)c2)cc1", "IC50": "27.8 µM"}
{"smiles": "Cc1[nH]c2ccccc2c1/C=N/NC(=O)c1cc(-c2cccs2)[nH]n1", "IC50": "> 79 µM (inactive)"}
{"smiles": "Nc1c(C(=O)NC2CCCC2)c2nc3ccccc3nc2n1N", "IC50": "> 79 µM (inactive)"}
{"smiles": "CC(=O)Nc1ccc2c(c1)[nH]c(=O)c1ccccc12", "IC50": "76.5 µM (inactive)"}
{"smiles": "CC(OC(=O)Cn1[nH]c(=O)c2ccccc2c1=O)C(=O)Nc1ccc(F)cc1", "note": "(configuration not stated)", "IC50": "> 79 µM (inactive)"}
{"smiles": "CCOc1ccccc1Nc1nnc(SCc2nnc(-c3cc(OC)c(OC)c(OC)c3)o2)s1", "IC50": "11.1 µM"}
{"smiles": "CCCCn1nc(NC(=O)c2cccs2)c2cc3ccccc3nc21", "IC50": "18.2 µM"}
{"smiles": "O=C(Nc1cccc(/C=C/c2ccccn2)c1)c1ccc(-n2cncn2)cc1", "IC50": "42.9 µM (inactive)"}
{"smiles": "CC(C)(C)OC(=O)C[C@H]1C/C=C\\C[C@H](CC(=O)N[C@H](CO)Cc2ccccc2)C(=O)N[C@H](Cc2ccccc2)COC1=O", "IC50": "20.5 µM"}
{"smiles": "O=Cc1ccc(OCc2cccc(C(F)(F)F)c2)cc1O", "IC50": "28.1 µM"}
{"smiles": "Cc1cc(C)cc(OCC(=O)Nc2cccc(-c3nnc(-c4ccco4)o3)c2)c1", "IC50": "> 79 µM (inactive)"}
{"smiles": "COc1cc(C(=O)N/N=C/c2ccc(OC(=O)c3ccccc3)c(OC)c2)ccc1O", "IC50": "> 79 µM (inactive)"}
{"smiles": "Cn1c(C(=O)Nc2ccc3c(c2)OCCO3)cc2c(=O)n(C)c3ccccc3c21", "IC50": "> 79 µM (inactive)"}
{"smiles": "COc1ccc(CCNC(=O)c2cc(C(=O)c3cc(C)ccc3O)cn(CCc3ccc(OC)cc3)c2=O)cc1", "IC50": "> 79 µM (inactive)"}
{"smiles": "CC1CCN(CCCNC(=O)c2n[nH]c(=O)c3ccccc23)CC1", "IC50": "> 79 µM (inactive)"}
{"smiles": "COc1cc(/C=C/C(=O)CC(=O)/C=C/c2ccc(O)c(OC)c2)ccc1O", "IC50": "> 79 µM (inactive)"}
{"smiles": "NC(=O)c1ccccc1OCC(=O)Nc1cccnc1Cl", "IC50": "> 79 µM (inactive)"}
{"smiles": "NC(=O)c1nsc(C(=O)N(c2ccccc2F)C(C(=O)NCc2ccc(F)cc2)c2ccc(O)cc2)c1N", "note": "(configuration not stated)", "IC50": "> 79 µM (inactive)"}
{"smiles": "CCC(=O)N1CCN(c2ccccc2NC(=O)c2ccc(-c3cccc([N+](=O)[O-])c3)o2)CC1", "IC50": "> 79 µM (inactive)"}
{"smiles": "N#Cc1c(-c2cccs2)cc(-c2cccnc2)nc1N", "IC50": "> 79 µM (inactive)"}
{"smiles": "O=C(Nc1ccc2nc(N3CCOCC3)sc2c1)c1cc2ccccc2o1", "IC50": "> 79 µM (inactive)"}
{"smiles": "Cc1cccc(NC(=O)c2nc[nH]c2C(=O)NCCCCNC(=O)c2[nH]cnc2C(=O)Nc2cccc(C)c2)c1", "IC50": "> 79 µM (inactive)"}
{"smiles": "NC(=O)c1cccc2c1C(=O)N(C1CCCCC1)C2", "IC50": "> 79 µM (inactive)"}
{"smiles": "CC(=O)OCc1nc2sc(C)c(C)c2c(=O)[nH]1", "IC50": "> 79 µM (inactive)"}
{"smiles": "O=C(Nc1nc(-c2ccccn2)cs1)c1cccc(-n2cnnn2)c1", "IC50": "> 79 µM (inactive)"}
{"smiles": "COc1ccc(-c2cc(C(F)F)n3ncc(C(=O)Nc4ccc(C(=O)N5CCOCC5)cc4)c3n2)cc1", "IC50": "> 79 µM (inactive)"}
{"smiles": "O=C(/C=C\\c1cn(-c2ccccc2)nc1-c1ccc2c(c1)OCCO2)N1CCOCC1", "IC50": "> 79 µM (inactive)"}
{"smiles": "COc1cccc(-c2cnc3c(NC=O)cc(-c4ccc(O)c(OC)c4)cn23)c1", "IC50": "> 79 µM (inactive)"}
{"smiles": "Brc1ccc(-c2nn3c(-c4ccccn4)nnc3s2)o1", "IC50": "52.8 µM (inactive)"}
{"smiles": "O=C(c1cc(=O)[nH]c2ccccc12)N1CCN(S(=O)(=O)c2ccc(Cl)cc2)CC1", "IC50": "> 79 µM (inactive)"}
{"smiles": "O=C(COc1ccc(F)cc1)Nc1nc(-c2ccccn2)cs1", "IC50": "> 79 µM (inactive)"}
{"smiles": "CCOC(=O)c1c2ccc(OCC(=O)N/N=C/c3ccc(C)cc3)cc2n2ccccc12", "IC50": "> 79 µM (inactive)"}
{"smiles": "O=c1[nH]c2cc3c(cc2cc1CN(Cc1nnnn1CC1CCCO1)C1CCCCC1)OCO3", "note": "(configuration not stated)", "IC50": "57.1 µM (inactive)"}
{"smiles": "Cc1ccc(CNC(=O)c2oc3ccc(S(=O)(=O)N4CCOCC4)cc3c2C)cc1", "IC50": "14.1 µM"}
{"smiles": "COc1cc(/C=C/c2nnc3c4ccccc4ncn23)cc(OC)c1OC", "IC50": "> 79 µM (inactive)"}
{"smiles": "O=c1[nH]c2cc(O)ccc2c2ccccc12", "IC50": "> 79 µM (inactive)"}
{"smiles": "Cc1cccc(-n2[nH]c(C)c(C=Nc3ccc4[nH]c(=O)[nH]c4c3)c2=O)c1", "IC50": "> 79 µM (inactive)"}
{"smiles": "Cc1ccc(-c2n[nH]c(=O)c3ccccc23)cc1S(N)(=O)=O", "IC50": "> 79 µM (inactive)"}
{"smiles": "O=c1c(O)c(-c2ccccc2)oc2cc(O)ccc12", "IC50": "> 79 µM (inactive)"}
{"smiles": "CC(=O)c1c(C)n(-c2cccc(Cl)c2)c2ccc(O)cc12", "IC50": "16.8 µM"}
{"smiles": "O=C(CCn1c(=O)oc2ccccc21)N(Cc1ccccc1)c1ccccc1", "IC50": "> 79 µM (inactive)"}
